Experiments:
[1] = Compound was tested for anti-HIV activity in MT-2/ IIIB cells and the ratio of the drug concentration (ID50) required to inhibit cell growth was reported.; format: functional, Homo sapiens
[2] = system: Human immunodeficiency virus; test: Compound concentration required to inhibit the viral cell proliferation by 50% against HIV; Range = 2-3; format: functional, organism-based; settings: Human immunodeficiency virus 1
CCRF-CEM = test: Compound concentration required to inhibit cell growth by 50% against CEM cells; format: functional; settings: Homo sapiens, read-out: ID50 (the source's name)
Hepatitis B virus = test: Compound concentration required to inhibit the viral cell proliferation by 50% against HBV; format: functional, organism-based
[3] = system: Human immunodeficiency virus; test: Compound concentration required to inhibit the viral cell proliferation by 50% against HIV; Range = 0.1-0.2; format: functional, organism-based; settings: Human immunodeficiency virus 1
[4] = system: Human immunodeficiency virus; test: Compound concentration required to inhibit the viral cell proliferation by 50% against HIV; Range = 0.3-0.5; format: functional, organism-based; settings: Human immunodeficiency virus 1

Row | IC50 (CCRF-CEM) [nM] | Compound | ID50 ratio [1] | EC50 [2] [nM] | EC50 (Hepatitis B virus) [nM] | EC50 [3] [nM] | EC50 [4] [nM]
1 | 50000 | Nc1ccn([C@@H]2CS[C@H](CO)O2)c(=O)n1 [LAMIVUDINE] | >100 | 2000 | 30 | – | –
2 | 7000 | Nc1nc(=O)n([C@@H]2C=C[C@H](CO)O2)cc1F [ELVUCITABINE] | 9 | – | 8 | 100 | –

Row | Compound | IC50 (CCRF-CEM) [nM] | ID50 ratio [1] | EC50 [2] [nM] | EC50 (Hepatitis B virus) [nM] | EC50 [3] [nM] | EC50 [4] [nM]
3 | Nc1nc(=O)n([C@@H]2CC[C@H](CO)O2)cc1F | 67000 | >100 | – | 36 | – | 300
